These results are taken from ChEMBL document CHEMBL2331291, “Targeting CCR2 Receptor To Treat Inflammation Diseases and Disorders” (ACS Med Chem Lett, 2013).

pKi: −log10 of the molar value.

For assay [1], the target named is C-C chemokine receptor type 2 (Homo sapiens, UniProt P41597). Briefly: Displacement of [125I]MCP1 from CCR2 in human THP1 cell membranes after 8 hrs by scintillation counting analysis. Also on record: species or system THP-1. On the technique in general: Loss of bound radioactivity is the signal in a displacement assay; it reports binding, not function.
Sequence of C-C chemokine receptor type 2 (P41597 whole entry): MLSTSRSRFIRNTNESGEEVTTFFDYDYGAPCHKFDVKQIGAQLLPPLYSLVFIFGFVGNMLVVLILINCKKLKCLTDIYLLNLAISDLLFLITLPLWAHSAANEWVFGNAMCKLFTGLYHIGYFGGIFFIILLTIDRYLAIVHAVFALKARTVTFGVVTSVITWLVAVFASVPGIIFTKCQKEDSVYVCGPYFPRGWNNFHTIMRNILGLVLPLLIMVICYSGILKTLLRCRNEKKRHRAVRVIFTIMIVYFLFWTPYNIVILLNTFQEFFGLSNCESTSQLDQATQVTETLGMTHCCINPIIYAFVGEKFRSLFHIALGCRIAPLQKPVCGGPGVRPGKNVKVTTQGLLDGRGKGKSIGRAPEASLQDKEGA
In assay [2] the target is C-C chemokine receptor type 5 (Homo sapiens, UniProt P51681). Briefly: Displacement of [125I]RANTES from human CCR5 expressed in CHO cell membranes coexpressing Gal6 after 6 hrs by scintillation counting analysis.
Sequence of C-C chemokine receptor type 5 (P51681 whole entry): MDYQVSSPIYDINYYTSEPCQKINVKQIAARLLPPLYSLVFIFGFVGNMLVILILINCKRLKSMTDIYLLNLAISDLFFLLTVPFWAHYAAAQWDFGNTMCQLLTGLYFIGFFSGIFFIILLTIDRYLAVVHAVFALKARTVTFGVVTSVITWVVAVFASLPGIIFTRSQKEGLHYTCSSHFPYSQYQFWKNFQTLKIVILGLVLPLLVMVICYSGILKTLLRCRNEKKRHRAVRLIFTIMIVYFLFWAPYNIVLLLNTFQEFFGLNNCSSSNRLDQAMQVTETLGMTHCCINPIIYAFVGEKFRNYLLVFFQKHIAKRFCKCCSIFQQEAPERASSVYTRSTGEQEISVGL

One may read the pKi as −log10 of the Ki, conventionally taken in molar units. A higher pKi goes with a low Ki. Take `CO[C@@H]1COCC[C@@H]1NC1CCN(C(=O)c2nc(C(F)(F)F)nc(N3CCc4cc(C(F)(F)F)ccc4C3)c2C)CC1`: the pKi in assay [1] was 8.70; in assay [2], 6.82.
